Results as given in US8710091B2, “Imidazolidine-2,4-dione derivatives, and use thereof as a cancer drug” (Ipsen Pharma S.A.S., priority 2009, dated 2014).

Tests used:
Assay type in all cases: cell-based
[1] = tested on: LNCaP cells; assay: Anti-proliferative activity on LNCaP in complete medium (WST-1); details: Homo sapiens, 144 h, 144 h incubation, read-out: IC50 on the LNCaP cells in culture (concentration inhibiting cell proliferation by 50%)
Protocol: The anti-proliferative activity of the compounds of the present invention is determined on LNCaP in complete medium by applying the following experimental procedure:
The LNCaP cell type (ATCC, 1740) originating from a prostate carcinoma expressing the androgen receptor, this line is hormone-dependent.
Maintenance of the LNCaP line is carried out in complete culture medium: RPMI, 10% of foetal calf serum, 2 mM glutamine, 100 U/ml penicillin, 0.1 mg/ml of streptomycin and 0.01M HEPES, 1 mM sodium pyruvate, 40% of D-glucose. • Seeding the plates:
The LNCaP line is seeded at 20,000 cells/well in 90 μl of complete medium in 96-well plates coated with poly-D-lysine (Biocoat, Costar). • Treatment of the cells: 24 h after the seeding, the cells are treated with 10 μl/well of compound diluted in the culture medium. Experiments of the effect of doses of the compound are carried out on a scale of 1 nM to 100 µM. The concentrations used are the following: 1 nM/10/30/100/300/1000/3000/10,000/100,000 nM. Testosterone (SIGMA T1500) is used as a reference and tested at the same concentrations. The cells are incubated for 144 h at 37° C., 5% CO2. • Reading: On D6, 10 μL of the “WST-1 cell proliferation” reagent (Roche ref 1644807) is added to each well. After incubation for 2 hours at 37° C., 5% CO2, the absorbance at 450 nm is measured by spectrophotometry (Envision, Perkin Elmer). • Results: The experiments are carried out in duplicate and the best compounds are tested twice. […] 2. Antiproliferative Activity on LNCaP in Medium without Steroids: […]

[2] = tested on: DU145 cells; assay: Antiproliferative activity on DU-145 in complete medium (WST-1); details: Homo sapiens, 144 h incubation, read-out: IC50 on the DU145 cells in culture (concentration inhibiting cell proliferation by 50%)
Protocol: The anti-proliferative activity of the compounds of the present invention is determined on DU-145 in complete medium.
Maintenance of the DU-145 line is carried out in DMEM, 10% of foetal calf serum, 2 mM of glutamine, 100 U/ml of penicillin, 0.1 mg/ml of streptomycin. • Seeding the plates: • The DU145 line is seeded at 400 or 800 cells/well in 90 μl of DMEM complete medium in 96-well plates (TPP). • Treatment of the cells: 24 h after the seeding, the cells are treated with 10 μl/well of compound diluted in the culture medium. Experiments showing the dose-effect of the compound are carried out on a scale of 1 nM to 100 μM. The concentrations used are the following: 1 nM/10/30/100/300/1000/3000/10,000/100,000 nM. The cells are incubated for 144 h at 37° C., 5% CO2. • Reading: On D6, 10 μL, of cell proliferation reagent WST-1 (Roche ref 1644807) is added to each well. After incubation for 2 to 4 hours at 37° C., 5% CO2, the absorbance at 450 nm is measured by spectrophotometry (Envision, Perkin Elmer). • Results: The experiments are carried out in duplicate and the best compounds are tested twice. […] 4. Measurement of the Disappearance of the Androgen Receptor

[3] = tested on: LNCaP cells; assay: Antiproliferative activity on LNCaP in medium without steroids (WST-1); details: 144 h, 1 nM to 100 μM
Protocol: The anti-proliferative activity of the compounds of the present invention is determined on LNCaP in medium without steroids.
The maintenance of the LNCaP line is carried out under the usual conditions in RPMI, 10% of foetal calf serum, 2 mM of glutamine, 100 U/ml of penicillin, 0.1 mg/ml of streptomycin and 0.01M HEPES, 1 mM sodium pyruvate, 40% of D-glucose.
For the study under conditions without steroids, 24 hours before the seeding the culture medium of the cells is eliminated. The cells are washed with PBS, then incubated in the presence of RPMI medium without phenol red, 10% of foetal calf serum without steroids (treatment with carbon), 2 mM of glutamine, 100 U/ml of penicillin, 0.1 mg/ml of streptomycin and 0.01M HEPES, 1 mM of sodium pyruvate, 40% of D-glucose. • Seeding the plates:
The LNCaP line is seeded at 20,000 cells/well in 90 μl of RPMI medium with 10% foetal calf serum without steroids in 96-well plates coated with poly-D-lysine (Biocoat, Costar). • Treatment of the cells: 24 h after seeding, the cells are treated with 10 μl/well of compound diluted in the culture medium. Experiments showing the dose-effect of the compound are carried out on a scale of 1 nM to 100 μM. The concentrations used are the following: 1 nM/10/30/100/300/1000/3000/10,000/100,000 nM. Testosterone (SIGMA T1500) is used as a reference and tested at the same concentrations. The cells are incubated for 144 h at 37° C., 5% CO2. • Reading: On D6, 10 μL of cell proliferation reagent WST-1 (Roche ref 1644807) is added to each well. After incubation for 2 to 4 hours at 37° C., 5% CO2, the absorbance at 450 nm is measured by spectrophotometry (Envision, Perkin Elmer). • Results: The experiments are carried out in duplicate and the best compounds are tested twice. […] 3. Antiproliferative Activity on DU-145 in Complete Medium: […]

SMILES | IC50 [1] [µM] | IC50 [2] [µM] | effect on the cell proliferation of LNCaP cultured in medium without steroids (FIG. 1) [3]
CC1(C)NC(=O)N(c2ccc([N+](=O)[O-])c(C(F)(F)F)c2)C1=O [nilutamide, reference compound] |  |  | biphasic profile with an agonist activity at low concentration followed by an inhibitory activity at high concentration
CC1(C)C(=O)N(c2ccc([N+](=O)[O-])c(C(F)(F)F)c2)C(=O)N1CCCCCCCCC[S+]([O-])CCC(F)(F)C(F)(F)C(F)(F)C(F)(F)F (stereo not drawn) [Example 15, 5,5-dimethyl-3-[4-nitro-3-(trifluoromethyl)phenyl]-1-{9-[(3,3,4,4,5,5,6,6,6-nonafluorohexyl)sulphinyl]nonyl}imidazolidine-2,4-dione] | < 2 | > 10 | 
CC1(C)C(=O)N(c2ccc([N+](=O)[O-])c(C(F)(F)F)c2)C(=O)N1CCCCCCCCCCC[S+]([O-])CCCC(F)(F)C(F)(F)F (stereo not drawn) [Example 11, 5,5-dimethyl-3-[4-nitro-3-(trifluoromethyl)phenyl]-1-{11-[(4,4,5,5,5-pentafluoropentyl)sulphinyl]undecyl}imidazolidine-2,4-dione] | < 2 | > 10 | 
O=C1N(c2ccc([N+](=O)[O-])c(C(F)(F)F)c2)C(=O)C2(CCC2)N1CCCCCCCCC[S+]([O-])CCCC(F)(F)C(F)(F)F (stereo not drawn) [Example 34, 7-[4-nitro-3-(trifluoromethyl)phenyl]-5-{9-[(4,4,5,5,5-pentafluoropentyl)sulphinyl]nonyl}-5,7-diazaspiro[3.4]octane-6,8-dione] | < 2 | > 10 | 
Cc1cc(N2C(=O)N(CCCCCCCCC[S+]([O-])CCCC(F)(F)C(F)(F)F)C(C)(C)C2=O)ccc1[N+](=O)[O-] (stereo not drawn) [Example 24, 5,5-dimethyl-3-(3-methyl-4-nitrophenyl)-1-{9-[(4,4,5,5,5-pentafluoropentyl)sulphinyl]nonyl}imidazolidine-2,4-dione] | < 2 | > 10 | 

The next lines start with results.

IC50 [1] [µM] | IC50 [2] [µM] | SMILES | effect on the cell proliferation of LNCaP cultured in medium without steroids (FIG. 1) [3]
< 2 | > 10 | Cc1cc(N2C(=O)N(CCCCCCCCCSCCCC(F)(F)C(F)(F)F)C(C)(C)C2=O)ccc1NS(N)(=O)=O [Example 30, N-[4-(4,4-dimethyl-2,5-dioxo-3-{9-[(4,4,5,5,5-pentafluoropentyl)sulphanyl]nonyl}imidazolidin-1-yl)-2-methylphenyl]sulphamide] | 
< 2 | > 10 | CC1(C)C(=O)N(c2ccc(C(N)=O)c(C(F)(F)F)c2)C(=O)N1CCCCCCCCC[S+]([O-])CCCC(F)(F)C(F)(F)F (stereo not drawn) [Example 22, 4-(4,4-dimethyl-2,5-dioxo-3-{9-[(4,4,5,5,5-pentafluoropentyl)sulphinyl]nonyl}imidazolidin-1-yl)-2-(trifluoromethyl)benzamide] | 
< 2 | > 10 | CC1(C)C(=O)N(c2ccc([N+](=O)[O-])c(C(F)(F)F)c2)C(=O)N1CCCCCCCC[S+]([O-])CCCC(F)(F)C(F)(F)F (stereo not drawn) [Example 7, 5,5-dimethyl-3-[4-nitro-3-(trifluoromethyl)phenyl]-1-{8-[(4,4,5,5,5-pentafluoropentyl)sulphinyl]octyl}imidazolidine-2,4-dione] | 
< 2 | > 10 | Cc1cc(N2C(=O)N(CCCCCCCCCS(=O)(=O)CCCC(F)(F)C(F)(F)F)C(C)(C)C2=O)ccc1NS(N)(=O)=O [Example 32, N-[4-(4,4-dimethyl-2,5-dioxo-3-{9-[(4,4,5,5,5-pentafluoropentyl)sulphonyl]nonyl}imidazolidin-1-yl)-2-methylphenyl]sulphamide] | 
< 2 | > 10 | Cc1cc(N2C(=O)N(CCCCCCCCC[S+]([O-])CCCC(F)(F)C(F)(F)F)C(C)(C)C2=O)ccc1NS(N)(=O)=O (stereo not drawn) [Example 31, N-[4-(4,4-dimethyl-2,5-dioxo-3-{9-[(4,4,5,5,5-pentafluoropentyl)sulphinyl]nonyl}imidazolidin-1-yl)-2-methylphenyl]sulphamide] | 
< 2 | > 10 | CC1(C)C(=O)N(c2ccc([N+](=O)[O-])c(C(F)(F)F)c2)C(=O)N1CCCCCCCCCSCCCC(F)(F)C(F)(F)F [Example 1, 5,5-dimethyl-3-[4-nitro-3-(trifluoromethyl)phenyl]-1-{9-[(4,4,5,5,5-pentafluoropentyl)thio]nonyl}imidazolidine-2,4-dione] | 
